According to patent publication US20220031596A1, “ANTI-AGING AGENT AND ANTI-AGING METHOD” (priority 2018, published 2022):

Columns and labels:
Assay type in all cases: in vivo, human
[1] = tested on: parathyroid hormone concentration in the plasma; experiment: Evaluation of parathyroid hormone secretion promoting effect (plasma parathyroid hormone, 24-week oral ingestion); conditions: for parathyroid hormone concentration in the plasma, 0 weeks (before ingestion): baseline; for parathyroid hormone concentration in the plasma, 0 weeks (before ingestion) / parathyroid hormone concentration in the plasma, 24 weeks (after ingestion) / parathyroid hormone concentration in the plasma, Change rate (24 weeks - 0 weeks): mean±SD
Description: In order to confirm a change in the parathyroid hormone quantity before and after ingestion of the nicotinamide mononucleotide, a test was conducted on healthy males and females aged 50 to 70 years.
As a sample of Working Example 6, a capsule formulation containing the nicotinamide mononucleotide and starch (100 mg (low dose) and 200 mg (high dose) of the nicotinamide mononucleotide in 4 capsules) (manufactured by SHINKOWA PHARMACEUTICAL Co., Ltd.) was used.
(§1) Each group consisting of five healthy males and females aged 50 to 70 years in an unbiased age group ingested the above low dose capsule formulation once a day by 4 capsules for 24 weeks (total 10 subjects, a low dose group: 100 mg/daily ingestion). On the other hand, each group consisting of five healthy males and females aged 50 to 70 years in the unbiased age group ingested the above high dose capsule formulation once a day by 4 capsules for 24 weeks (total 10 subjects, a high dose group: 200 mg/daily ingestion). In order to conduct appropriate evaluations, those who had been regularly using medical products for chronic diseases, those who had been consuming healthy foods that may affect clinical research, and those who were currently participating in other clinical researches or clinical trials or had participated in other clinical researches or clinical trials within the last three months were excluded from the subject for the evaluation. The capsule formulations were ingested at 10 am (between meals and fasting state) together with water or lukewarm water (oral administration).
Measurement of the parathyroid hormone quantity in the plasma was conducted by requesting the measurement to an external public organization according to a usual method. FIGS. 12a to 12c indicate transitions of the parathyroid hormone concentration (pg/ml) in the plasma for 24 weeks. FIG. 12a represents the transitions of the whole subjects; FIG. 12b represents the transitions of the male subjects; FIG. 12c represents the transitions of the female subjects. Further, FIGS. 13a to 13c indicate change rates (%) of the blood parathyroid hormone concentration up to 24 weeks when the nicotinamide mononucleotide was orally administered to the subjects for 24 weeks. FIG. 13a represents the change rates of the whole subjects; FIG. 13b represents the change rates of the male subjects; FIG. 13c represents the change rates of the female subjects. Further, Table 6 indicates the numerical values of the parathyroid hormone concentration (pg/ml) in the plasma before the ingestion of the nicotinamide mononucleotide (0 weeks) and after the ingestion of the nicotinamide mononucleotide (24 weeks). Note that the numerical values represent mean values±standard deviation.

[2] = tested on: mRNA expression level of the sirtuin gene Sirt1; experiment: Evaluation of sirtuin 1 (Sirt1) secretion promoting effect (blood Sirt1 mRNA by real-time PCR, 24-week oral ingestion); conditions: for mRNA expression level of the sirtuin gene Sirt1 (relative to that of GAPDH), 0 weeks (before ingestion) / mRNA expression level of the sirtuin gene Sirt1 (relative to that of GAPDH), 24 weeks (after ingestion) / mRNA expression level of the sirtuin gene Sirt1 (relative to that of GAPDH), Change rate (24 weeks - 0 weeks): blood, High Dose Group (200 mg/daily, oral), mean±SD; for mRNA expression level of the sirtuin gene Sirt1 (relative to that of GAPDH), 0 weeks (before ingestion): baseline
Description: In order to confirm a change in the Sirt1 quantity before and after ingestion of the nicotinamide mononucleotide, a test was conducted on healthy males and females aged 50 to 70 years.
As a sample of Working Example 13, a capsule formulation containing the nicotinamide mononucleotide and starch (200 mg of the nicotinamide mononucleotide in 4 capsules) (manufactured by SHINKOWA PHARMACEUTICAL Co., Ltd.) was used.
as §1, with “above” for “above low dose capsule formulation once a day by 4 capsules for 24 weeks (total 10 subjects, a low dose group: 100 mg/daily ingestion). On the other hand, each group consisting of five healthy males and females aged 50 to 70 years in the unbiased age group ingested the above”, “subjects,” for “subjects, a high dose group:”
Measurement of the Sirt1 quantity in the blood was conducted by requesting the measurement to an external public organization according to a usual method. The mRNA expression level of the sirtuin gene Sirt1 was analyzed by a real-time PCR method with the blood collected before the ingestion of the nicotinamide mononucleotide (0 weeks) and after the ingestion of the nicotinamide mononucleotide (24 weeks). Note that, in this analysis, cDNA was purified on the day when the blood sample was collected and stored at −80° C. until all samples were prepared. The samples were then subjected to the real-time PCR method at the same time. The expression level was normalized using GAPDH as a reference gene. Table 12 indicates the numerical values of the mRNA expression level of the sirtuin gene Sirt1 (relative to that of GAPDH). Note that the numerical values represent mean values±standard deviation.

[3] = tested on: cortisol concentration in the plasma; experiment: Evaluation of cortisol secretion promoting effect (plasma cortisol, 24-week oral ingestion); conditions: for cortisol concentration in the plasma, 0 weeks (before ingestion) / cortisol concentration in the plasma, 24 weeks (after ingestion) / cortisol concentration in the plasma, Change rate (24 weeks - 0 weeks): High Dose Group (200 mg/daily, oral), mean±SD; for cortisol concentration in the plasma, 0 weeks (before ingestion): baseline
Description: In order to confirm a change in the cortisol quantity before and after ingestion of the nicotinamide mononucleotide, a test was conducted on healthy males and females aged 50 to 70 years.
As a sample of Working Example 11, a capsule formulation containing the nicotinamide mononucleotide and starch (200 mg of the nicotinamide mononucleotide in 4 capsules) (manufactured by SHINKOWA PHARMACEUTICAL Co., Ltd.) was used.
as §1, with “above” for “above low dose capsule formulation once a day by 4 capsules for 24 weeks (total 10 subjects, a low dose group: 100 mg/daily ingestion). On the other hand, each group consisting of five healthy males and females aged 50 to 70 years in the unbiased age group ingested the above”, “subjects,” for “subjects, a high dose group:”
Measurement of the cortisol quantity in the plasma was conducted by requesting the measurement to an external public organization according to a usual method. FIGS. 22a to 22c indicate transitions of the cortisol concentration […] in the plasma for 24 weeks. FIG. 22a represents the transitions of the whole subjects; FIG. 22b represents the transitions of the male subjects; FIG. 22c represents the transitions of the female subjects. Further, FIGS. 23a to 23c indicate change rates (%) of the blood cortisol concentration up to 24 weeks when the nicotinamide mononucleotide was orally administered to the subjects for 24 weeks. FIG. 23a represents the change rates of the whole subjects; FIG. 23b represents the change rates of the male subjects; FIG. 23c represents the change rates of the female subjects. Further, Table 10 indicates the numerical values of the cortisol concentration (μg/dl) in the plasma before the ingestion of the nicotinamide mononucleotide (0 weeks) and after the ingestion of the nicotinamide mononucleotide (24 weeks). Note that the numerical values represent mean values±standard deviation.

[4] = Female, High Dose Group (200 mg/daily, oral)
[5] = Female, Low Dose Group (100 mg/daily, oral)
[6] = Male, High Dose Group (200 mg/daily, oral)
[7] = Male, Low Dose Group (100 mg/daily, oral)
[8] = Whole Subjects, High Dose Group (200 mg/daily, oral)
[9] = Whole Subjects, Low Dose Group (100 mg/daily, oral)

`NC(=O)c1ccc[n+]([C@@H]2O[C@H](COP(=O)([O-])O)[C@@H](O)[C@H]2O)c1` [nicotinamide mononucleotide] was tested, and the “parathyroid hormone concentration in the plasma, 0 weeks (before ingestion)” value [1, 4] was 384 ± 88 pg/mL, the “parathyroid hormone concentration in the plasma, 24 weeks (after ingestion)” value [1, 4] was 448 ± 114 pg/mL and the “parathyroid hormone concentration in the plasma, Change rate (24 weeks - 0 weeks)” value [1, 4] was 64 ± 65 pg/mL. For the same compound, the “parathyroid hormone concentration in the plasma, 0 weeks (before ingestion)” value [1, 5] was 328 ± 45 pg/mL, the “parathyroid hormone concentration in the plasma, 24 weeks (after ingestion)” value [1, 5] was 394 ± 63 pg/mL and the “parathyroid hormone concentration in the plasma, Change rate (24 weeks - 0 weeks)” value [1, 5] was 66 ± 34 pg/mL. For the same compound, the “parathyroid hormone concentration in the plasma, 0 weeks (before ingestion)” value [1, 6] was 410 ± 108 pg/mL, the “parathyroid hormone concentration in the plasma, 24 weeks (after ingestion)” value [1, 6] was 438 ± 168 pg/mL and the “parathyroid hormone concentration in the plasma, Change rate (24 weeks - 0 weeks)” value [1, 6] was 28 ± 77 pg/mL. The “parathyroid hormone concentration in the plasma, 0 weeks (before ingestion)” value [1, 7] was 344 ± 69 pg/mL, the “parathyroid hormone concentration in the plasma, 24 weeks (after ingestion)” value [1, 7] was 386 ± 108 pg/mL and the “parathyroid hormone concentration in the plasma, Change rate (24 weeks - 0 weeks)” value [1, 7] was 42 ± 73 pg/mL. The “parathyroid hormone concentration in the plasma, 0 weeks (before ingestion)” value [1, 8] was 397 ± 94 pg/mL, the “parathyroid hormone concentration in the plasma, 24 weeks (after ingestion)” value [1, 8] was 443 ± 135 pg/mL and the “parathyroid hormone concentration in the plasma, Change rate (24 weeks - 0 weeks)” value [1, 8] was 46 ± 70 pg/mL. The “parathyroid hormone concentration in the plasma, 0 weeks (before ingestion)” value [1, 9] was 336 ± 56 pg/mL, the “parathyroid hormone concentration in the plasma, 24 weeks (after ingestion)” value [1, 9] was 390 ± 84 pg/mL and the “parathyroid hormone concentration in the plasma, Change rate (24 weeks - 0 weeks)” value [1, 9] was 54 ± 55 pg/mL. For the same compound, the “parathyroid hormone concentrations in the plasma, effect of ingestion (in words)” value ([1]; oral, 100 or 200 mg/daily, 24 weeks, FIGS. 12a-12c, 13a-13c) was “increased”, the “mRNA expression level of the sirtuin gene Sirt1 (relative to that of GAPDH), 0 weeks (before ingestion)” value ([2]; Female) was 1.01 ± 0.17 and the “mRNA expression level of the sirtuin gene Sirt1 (relative to that of GAPDH), 24 weeks (after ingestion)” value ([2]; Female) was 1.72 ± 0.98. For the same compound, the “mRNA expression level of the sirtuin gene Sirt1 (relative to that of GAPDH), Change rate (24 weeks - 0 weeks)” value ([2]; Female) was 1.70 ± 0.90, the “mRNA expression level of the sirtuin gene Sirt1 (relative to that of GAPDH), 0 weeks (before ingestion)” value ([2]; Male) was 1.65 ± 0.99 and the “mRNA expression level of the sirtuin gene Sirt1 (relative to that of GAPDH), 24 weeks (after ingestion)” value ([2]; Male) was 3.69 ± 2.82. The “mRNA expression level of the sirtuin gene Sirt1 (relative to that of GAPDH), Change rate (24 weeks - 0 weeks)” value ([2]; Male) was 4.67 ± 5.13, the “mRNA expression level of the sirtuin gene Sirt1 (relative to that of GAPDH), 0 weeks (before ingestion)” value ([2]; Whole Subjects) was 1.33 ± 0.75 and the “mRNA expression level of the sirtuin gene Sirt1 (relative to that of GAPDH), 24 weeks (after ingestion)” value ([2]; Whole Subjects) was 2.71 ± 2.25. The “mRNA expression level of the sirtuin gene Sirt1 (relative to that of GAPDH), Change rate (24 weeks - 0 weeks)” value ([2]; Whole Subjects) was 3.18 ± 3.81, the “expression level of Sirt1 in the blood, effect of ingestion (in words)” value ([2]; oral, 200 mg/daily, 24 weeks) was “increased” and the “cortisol concentration in the plasma, 0 weeks (before ingestion)” value (“cortisol concentration … (before ingestion)” below) ([3]; Female) was 6.82 ± 1.20 µg/dL. The “cortisol concentration in the plasma, 24 weeks (after ingestion)” value (“cortisol concentration … (after ingestion)” for short) ([3]; Female) was 10.56 ± 5.92 µg/dL, the “cortisol concentration in the plasma, Change rate (24 weeks - 0 weeks)” value ([3]; Female) was 3.74 ± 6.16 µg/dL and the “cortisol concentration … (before ingestion)” value ([3]; Male) was 7.97 ± 2.50 µg/dL. For the same compound, the “cortisol concentration … (after ingestion)” value ([3]; Male) was 10.30 ± 4.47 µg/dL, the “cortisol concentration in the plasma, Change rate (24 weeks - 0 weeks)” value ([3]; Male) was 2.33 ± 3.38 µg/dL and the “cortisol concentration … (before ingestion)” value ([3]; Whole Subjects) was 7.40 ± 1.94 µg/dL. The “cortisol concentration … (after ingestion)” value ([3]; Whole Subjects) was 10.43 ± 4.95 µg/dL, the “cortisol concentration in the plasma, Change rate (24 weeks - 0 weeks)” value ([3]; Whole Subjects) was 3.04 ± 4.74 µg/dL and the “cortisol concentrations in the plasma, effect of ingestion (in words)” value ([3]; oral, 200 mg/daily, 24 weeks, FIGS. 22a-22c, 23a-23c) was “increased”.
